Five compounds from ChEMBL document CHEMBL1121878, “Synthesis of seleno- and thioguanine-platinum(II) complexes and their antitumor activity in mice” (1981) can be followed below.

A value given as a limit tells only on which side of the number the result lay.

Assay [1] relates to L1210. Put plainly: In vitro inhibitory concentration required for 50% inhibition of L1210 cell growth. The format is functional. The following applies: Mus musculus, read-out: ID50 (the source's name).
Assay [2] deals with L1210. Put plainly: (§1) Ratio of the median survival time (treated(T) versus control(C)) at a dose of 50 mg/kg, on days 1 and 5. The format is functional, Mus musculus.
Assay [3] in a line: The number of mice survived to that of total at a dose of 50 mg/kg on 30th day; 1/5. The format is functional.
The test system of assay [4] is L1210. Briefly: (§2) Ratio of the median survival time (treated(T) versus control(C)) at a dose of 100 mg/kg, on days 1 and 5. The format is functional, Mus musculus.
For assay [5], the system named is L1210. Briefly: Median survival time when no dose was administered in mice bearing L1210 cells on days 1 and 5. The format is functional, Mus musculus.
Assay [6] in a line: The number of mice survived to that of total at a dose of 100 mg/kg on 30th day; 3/5. The format is functional.
For assay [7], the system named is L1210. Put plainly: Effect dose of 50 mg/kg on day 3, before L1210 cell transplantation in mice. The format is functional, Mus musculus.
For assay [8], the system named is L1210. Put plainly: Median survival time at a compound dose of 50 mg/kg, in mice bearing L1210 cells on days 1 and 5. The format is functional, Mus musculus.
Assay [9] concerns L1210. Put plainly: (§3) Median survival time at a compound dose of 100 mg/kg, in mice bearing L1210 cells on days 1 and 5. The format is functional, Mus musculus.
Assay [10] in a line: The number of mice survived to that of total when no compound dose was given on 30th day. The format is functional.
The nature of assay [11]: The number of mice survived to that of total at a dose of 75 mg/kg on 30th day; 0/5. The format is functional.
Assay [12] deals with L1210. Put plainly: Median survival time at a compound dose of 75 mg/kg, in mice bearing L1210 cells on days 1 and 5. The format is functional, Mus musculus.
Assay [13] relates to L1210. Briefly: Median survival time at a compound dose of 25 mg/kg, in mice bearing L1210 cells on days 1 and 5. The format is functional, Mus musculus.
Assay [14] can be described thus: The number of mice survived to that of total at a dose of 25 mg/kg on 30th day; 0/5. The format is functional.
Assay [15] concerns L1210. Put plainly: Ratio of the median survival time (treated(T) versus control(C)) at a dose of 75 mg/kg on days 1 and 5. The format is functional, Mus musculus.
Assay [16] relates to L1210. Briefly: Ratio of the median survival time (treated(T) versus control(C)) at a dose of 25 mg/kg, on days 1 and 5. The format is functional, Mus musculus.
A short description of assay [17]: The number of mice survived to that of total at a dose of 50 mg/kg on 30th day; 0/5. The format is functional.
Assay [18] has as its system L1210. Briefly: Ratio of the median survival time (treated(T) versus control(C)) at a dose of 800 mg/kg, on days 1 and 5. The settings on record: Mus musculus. Details: dose 800 mg/kg. The format is functional, organism-based.
The test system of assay [19] is L1210. Put plainly: Ratio of the median survival time (treated(T) versus control(C)) at a dose of 400 mg/kg, on days 1 and 5. The format is functional, organism-based. Details: dose 400 mg/kg. The settings on record: Mus musculus.
For assay [20], the system named is L1210. Briefly: Ratio of the median survival time (treated(T) versus control(C)) at a dose of 100x2 mg/kgxdays, on days 1 and 5. The format is functional, organism-based. The following applies: Mus musculus.
The nature of assay [21]: The number of mice survived to that of total at a dose of 800 mg/kg on 30th day; 0/5. The format is functional, organism-based. Details: dose 800 mg/kg.
The test system of assay [22] is L1210. The description is as §3. The format is functional. The settings on record: Mus musculus.
Assay [23] relates to L1210. Briefly: Median survival time at a compound dose of 400 mg/kg, in mice bearing L1210 cells on days 1 and 5. The following applies: Mus musculus. The format is functional, organism-based. Also noted: dose 400 mg/kg.
The subject of assay [24] is L1210. Briefly: Ratio of the median survival time (treated(T) versus control(C)) at a dose of 50x2 mg/kgxdays, on days 1 and 5. The format is functional, organism-based. The following applies: Mus musculus.
A short description of assay [25]: The number of mice survived to that of total at a dose of 100 mg/kg on 30th day; 0/5. Details: dose 100 mg/kg. The format is functional, organism-based.
Assay [26] has as its system L1210. Put plainly: Median survival time at a compound dose of 800 mg/kg (administered on days 1 & 5) in mice bearing L1210 cells. Also noted: dose 800 mg/kg. The following applies: Mus musculus. The format is functional, organism-based.
A short description of assay [27]: The number of mice survived to that of total at a dose of 400 mg/kg on 30th day; 0/5. The format is functional, organism-based. Details: dose 400 mg/kg.
In assay [28] the test system is Mus musculus. The description is as §1. The format is functional.
Assay [29] in a line: The number of mice survived to that of total at a dose of 25 mg/Kg on 30th day: 4/5. The format is functional.
Assay [30] is described as follows: The number of mice survived to that of total at a dose of 100 mg/kg on 30th day. The format is functional.
The subject of assay [31] is L1210. Put plainly: Median survival time at a compound dose of 200 mg/kg, in mice bearing L1210 cells on days 1 and 5; Toxic. The format is functional, organism-based. The settings on record: Mus musculus. Also noted: dose 200 mg/kg.
The nature of assay [32]: The number of mice survived to that of total at a dose of 50 mg/Kg on 30th day. The format is functional.
In assay [33] the test system is Mus musculus. Described as §2. The format is functional.
Assay [34] has as its system Mus musculus. Briefly: Ratio of the median survival time (treated(T) versus control(C)) at a dose of 25 mg/Kg on days 1 and 5. The format is functional.
The subject of assay [35] is L1210. Briefly: Median survival time at a compound dose of 25 mg/Kg, in mice bearing L1210 cells on days 1 and 5. The format is functional, Mus musculus.

For the compound `O=c1[nH]c(=S)c2nc[nH]c2[nH]1`, the IC50 with L1210 [1] is 10.6 µM.

A word on the T/C: it is the ratio of treated to control. Take `Nc1nc([SeH])c2[nH]cnc2n1`: the T/C with L1210 [2] is on record as 200%; in the assay with L1210 [4], above 300%; with L1210 [7], 100%. In addition, the Ratio in assay [3] worked out at 1; in assay [6] it was 3; in assay [10], 0. In addition, the Median survival time in the assay on L1210 [5] is 9 days; with L1210 [8], 18 days; with L1210 [9], above 30 days. In the assay on L1210 [1], the IC50 is 0.00416 µM.

Consider `Nc1nc([SeH])c2ncn(C3O[C@H](CO)[C@H](O)[C@@H]3O)c2n1` (stereo partly drawn), for which the T/C in the assay on L1210 [2] is listed as 144.4%; with L1210 [15], 144.4%; in the assay with L1210 [16], 166.7%. The Ratio in [11], in assay [14] and in [17] was 0 in each case. Also, the Median survival time in the assay on L1210 [12] was 13 days; in the assay with L1210 [13], 15 days; in the assay with L1210 [5] it was 9 days; with L1210 [8], 13 days.

In the case of “2-(2-Amino-6-selanyl-purin-9-yl)-5-hydroxymethyl-tetrahydro-furan-3,4-diol platinum complex”, the T/C turned out to be 156% with L1210 [18], 133% in the assay with L1210 [19], 111% in the assay on L1210 [20] and 133% in the assay on L1210 [24]. The Ratio in assay [21], in [25], in assay [17], in assay [27] and in assay [10] was 0 in each case. For the same compound, the Median survival time in the assay on L1210 [5] (Mus musculus) came to 9 days; in the assay on L1210 [22], 11 days; with L1210 [23] it was 12 days; in the assay on L1210 [8] (Mus musculus), 12 days; in the assay on L1210 [26], 14 days.

For the compound `Nc1nc2[nH]cnc2c(=S)[nH]1` [THIOGUANINE], the T/C in the assay on Mus musculus [28] was 120%; with Mus musculus [33], 100%; with L1210 [7], 111%; in the assay on Mus musculus [34] it was above 300%. Moreover, the Ratio in assay [29] came out at 4; in assay [30], 0; in assay [32], 0; in assay [10], 0. In addition, the Median survival time entry with L1210 [31] was “Toxic”; in the assay on L1210 [5], 10 days; in the assay with L1210 [8], 12 days; with L1210 [9], 10 days; with L1210 [35], above 30 days.
